As usually defined, the IC50 is the concentration needed to halve the response being measured. Lower therefore signals greater potency.

This passage reports IC50 results from article PMC7857491, “Quantification and characterization of the 5′ exonuclease activity of the lysosomal nuclease PLD3 by a novel cell-based assay” (The Journal of Biological Chemistry, 2020).

This experiment concerns the target Phospholipase D3 (PLD3) (Homo sapiens, UniProt Q8IV08).

Chain of Phospholipase D3 (PLD3) (Q8IV08 whole entry): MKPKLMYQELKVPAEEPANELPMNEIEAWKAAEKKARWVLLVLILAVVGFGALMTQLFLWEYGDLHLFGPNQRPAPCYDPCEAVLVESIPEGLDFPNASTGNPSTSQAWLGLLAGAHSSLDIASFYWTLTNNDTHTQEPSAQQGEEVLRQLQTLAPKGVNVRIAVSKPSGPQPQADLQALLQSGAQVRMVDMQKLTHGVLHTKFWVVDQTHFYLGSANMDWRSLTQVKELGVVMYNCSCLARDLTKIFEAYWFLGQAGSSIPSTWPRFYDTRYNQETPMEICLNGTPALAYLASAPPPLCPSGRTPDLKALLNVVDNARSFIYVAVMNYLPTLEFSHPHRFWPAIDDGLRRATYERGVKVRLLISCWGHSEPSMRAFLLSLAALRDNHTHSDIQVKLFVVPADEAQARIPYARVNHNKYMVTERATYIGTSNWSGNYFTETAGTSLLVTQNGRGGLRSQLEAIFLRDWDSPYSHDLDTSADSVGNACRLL

Molecule `[O]=[V]([OH])([OH])[OH]` [orthovanadate] showed an IC50 of 10 µM.
